Where two headings read alike, the source gives them in different places. Peptide text beside a SMILES is read from it. * marks the point of attachment. Cbz = O=C(OCc1ccccc1)*
What was measured:
[1] = target: c-20S β5c (Homo sapiens, UniProt P20618+P28074); settings: ref [20], cited from earlier work
[2] = target: i-20S β5i (Homo sapiens, UniProt P20618+P28062); settings: ref [20], cited from earlier work
[3] = test system: M. tuberculosis; settings: under nitrosative stress; ref [20]; cited from earlier work
[4] = target: T1, Mtb20SOG (Mycobacterium tuberculosis, UniProt P9WHT9); settings: ref [20], cited from earlier work
T1 sequence (P9WHT9 58-291): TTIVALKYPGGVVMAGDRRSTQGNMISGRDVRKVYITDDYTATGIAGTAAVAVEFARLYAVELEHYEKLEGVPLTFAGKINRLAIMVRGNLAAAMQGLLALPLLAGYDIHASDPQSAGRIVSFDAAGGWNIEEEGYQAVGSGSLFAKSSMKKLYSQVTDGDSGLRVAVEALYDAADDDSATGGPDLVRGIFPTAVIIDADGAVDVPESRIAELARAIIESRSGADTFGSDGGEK
T1 sequence (P9WHU1 9-248 partner): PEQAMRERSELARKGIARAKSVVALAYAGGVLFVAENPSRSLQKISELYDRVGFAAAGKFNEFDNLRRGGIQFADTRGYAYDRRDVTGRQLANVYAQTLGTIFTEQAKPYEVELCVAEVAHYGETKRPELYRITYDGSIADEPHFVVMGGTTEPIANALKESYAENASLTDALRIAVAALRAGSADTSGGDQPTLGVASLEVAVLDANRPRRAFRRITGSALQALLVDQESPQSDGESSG

[5] = target: T1, Mtb20SOG; test: biochemical

Compound	SIapp IC50β5c/IC50Mtb20SOG ([1]; apparent selectivity index)	IC50 ([1]; read-out: IC50 c-20S β5c (LLVY), suc-LLVY-AMC) [µM]	affinity for Mtb 20S stronger than for human c-20S [1] [fold]	SIapp IC50β5i/IC50Mtb20SOG ([2]; apparent selectivity index)	IC50 ([2]; read-out: IC50 i-20S β5i (ANW), Ac-ANW-AMC) [µM]	affinity for Mtb 20S stronger than for human i-20S [2] [fold]	bactericidal activity against nonreplicating bacteria [3]	more potent against Mtb20SOG than DPLG-4 ([4]; DPLG-4 has a 4-isopropyl phenyl P1 group) [fold]	more potent against Mtb20SOG than ML9 ([4]; ML9 has a 2,4-difluorobenzyl P1 group) [fold]	IC50 ([4]; read-out: IC50 Mtb20SOG (LLVY), suc-LLVY-AMC) [µM]	IC50 [5] [µM]
CCN(CC)C(=O)C[C@H](NC(=O)CCc1ccccc1)C(=O)N[C@@H](Cc1ccc(F)cc1)C(=O)NCc1cccc2ccccc12 [DPLG-2]	4667	70	4667	3647	54.7	3647	bactericidal activity	51	4	0.015	
CC(C)C[C@@H](C=O)NC(=O)[C@H](CC(C)C)NC(=O)[C@H](CC(C)C)NC(=O)OCc1ccccc1 [MG-132] (Cbz-Leu-Leu-Leu-aldehyde)											1.71 ± 0.079
